Results on six compounds are retold here after patent US12492174B2, “Morpholine-3-carboxamide derivatives as prostaglandin E2 receptor 4 (EP4) agonists for the treatment of gastrointestinal and pulmonary diseases” (NXERA PHARMA UK LIMITED, priority 2022, dated 2025).

In one series the target is T1, human EP4 (Homo sapiens, UniProt P35408).
T1 construct: expressed in transfected cells; host or cells: HEK293 cells transduced with EP4 BacMam virus
Briefly: cAMP Gs functional assay (HTRF cAMP dynamic-2). The series is classed as cell-based. To be noted: for Emax: HEK293, HEK293 cells transfected with EP4 Bacmam virus, positive control 10 uM PGE2; for EC50: HEK293 cells transfected with EP4 Bacmam virus, 30 mins at 37° C., −Log of the molarity (M), read-out: cAMP human EP4 pEC50 (converted). The procedure: Cloning, Baculovirus generation, large scale infection of HEK293 cells and membrane preparation: Human prostaglandin E2 receptor 4 (EP4) was cloned into pBacMam expression vector (GeneScript, UK). Transposition of EP4 DNA was performed using Invitrogen's Bac-to-Bac Baculovirus Expression Systems. P0 baculovirus was generated by transfecting SF9 Cells with bacmid DNA using Cellfectin II transfection reagent (ThermoFisher Scientific, UK). Following P0 generation P1 virus was then generated ready for large scale infection and membrane preparation. HEK293 cells were grown in DMEM (ThermoFisher Scientific, UK), supplemented with 10% heat inactivated fetal bovine serum (FBS). Cells were infected at a seeding density of 3.5 million cells/mL in 500 cm^3 flasks at 5% v/v EP4 Bacman. Expression was carried out over a 36 hr period at 37° C. with 5% CO2. The cells were removed using PBS and a cell scrapper. The cell culture was centrifuged at 2500 RPM for 10 mins at 4° C. The supernatant was then poured off and the pellet stored at −80° C. The pellet was defrosted and re-suspended in 15 mL of homogenising buffer (20 mM HEPES, 10 mM EDTA, pH 7.4). Then homogenised in mechanical homogeniser (VMR) for 10 seconds. The membrane was centrifuged in centrifuge tubes at 40,000 g for 15 mins at 4° C. The supernatant was poured away and re-suspended in 15 mL of homogenising buffer. Homogenised for 20 seconds. The membrane was centrifuged at 40,000 g for 45 mins at 4° C. The membrane was re-suspended in 3 mL of storage buffer (20 mM HEPES, 0.1 mM EDTA, pH 7.4) mixing well. The resulting membranes were then stored at −80° C.
cAMP Gs Functional Assay: cAMP production following EP4 receptor activation was determined using the Homogeneous Time-Resolved Fluorescence (HTRF) cAMP dynamic-2 assay (Cisbio, France). HEK293 cells were transfected using a 0.5% EP4 Bacmam virus for 36 hours, before dissociating the cells, and freezing at −150° C.
On the day of testing, increasing concentration of test compounds, alongside positive controls (10 uM PGE2 (Tocris, Abingdon, UK)) and negative control (DMSO (Sigma-Aldrich, UK) were added to a ProxiPlate-384 Plus, White 384-shallow well Mircoplate, (PerkinElmer, USA) using the ECHO dispense.
Cells were defrosted in a water bath and resuspended in DMEM supplemented with 10% FBS before centrifuging at 1200 RPM for 5 mins to form a pellet. The pellet was resuspended in assay buffer (DMEM+0.5 mM IBMX (Tocris, Abingdon, UK)) to 0.5×10^6 cells/mL. Cell suspension, for a final assay concentration of 5000 cell/well was added using the multidrop to the pre-dispensed assay plate. The plate was then incubated at 37° C. for 30 mins, with 5% CO2. The cAMP production was determined as manufacturer's instructions, before plates were read on a PheraStar fluorescence plate reader (BMG LabTech, Germany).
The pEC50 values (−Log of the molarity (M) in mol/liter) were calculated from the mid-point of the curve using dotmatics as shown in Table 3.

Series [1] is described as follows: Unidirectional Caco-2 cell permeability assay. The series is classed as in vitro ADME. The following applies: human, n=2, apical pH 6.5, basolateral pH 7.4, 1 hour, 37° C. On the procedure:
Caco-2 cells (ECACC) were seeded onto 24-well Transwell plates at 2×10^5 cells per well and used in confluent monolayers after a 21 day culture at 37° C. under 5% CO2. Test compounds were incubated at 10 μM, 0.2% DMSO final, n=2 in assay buffer (Hanks balanced salt solution supplemented with 25 mM HEPES, adjusted to pH 6.5). Hanks balanced salt solution supplemented with 25 mM HEPES, adjusted to pH 7.4 (0.2% DMSO final) was used for the basolateral chamber (as receiver).
Incubations were performed at 37° C., with samples removed from both donor and acceptor chambers at T=0 and 1 hour and compound analysed by mass spectrometry (LC-MS/MS) including an analytical internal standard (0.5 μM carbamazepine).
Apparent permeability (Papp) values are shown in Table 4 and were determined from the relationship:
Where V is the volume of each Transwell compartment (apical 125 μL, basolateral 600 μL), and concentrations are the relative MS responses for compound (normalized to internal standard) in the donor chamber before incubation and acceptor chamber at the end of the incubation Area=area of cells exposed for drug transfer (0.33 cm^2).
Lucifer Yellow (LY) was added to the apical buffer in all wells to assess viability of the cell layer. As LY cannot freely permeate lipophilic barriers, a high degree of LY transport indicates poor integrity of the cell layer and wells with a LY Papp>10×10^−6 cm/s were rejected.
Compound recovery from the wells was determined from MS responses (normalized to internal standard) in donor and acceptor chambers at the end of incubation compared to response in the donor chamber pre-incubation.
(Passage across Caco-2 layers is used to estimate intestinal permeability.)

T1 sequence (P35408 whole entry): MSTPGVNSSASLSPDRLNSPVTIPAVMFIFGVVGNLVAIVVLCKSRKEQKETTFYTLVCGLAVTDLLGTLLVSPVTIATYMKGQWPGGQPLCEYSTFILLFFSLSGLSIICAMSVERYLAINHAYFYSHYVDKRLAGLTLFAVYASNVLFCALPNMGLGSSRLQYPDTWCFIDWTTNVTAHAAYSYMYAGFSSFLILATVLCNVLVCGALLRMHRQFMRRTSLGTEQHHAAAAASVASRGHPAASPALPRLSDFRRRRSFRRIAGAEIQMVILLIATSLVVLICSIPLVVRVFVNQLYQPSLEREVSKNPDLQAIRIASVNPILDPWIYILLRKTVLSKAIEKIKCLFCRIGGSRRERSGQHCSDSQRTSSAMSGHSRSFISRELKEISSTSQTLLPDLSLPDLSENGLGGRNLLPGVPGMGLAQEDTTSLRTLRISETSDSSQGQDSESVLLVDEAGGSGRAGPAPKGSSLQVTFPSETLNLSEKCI

What is called Emax is the size of the effect at its maximum, as opposed to the concentration needed. Usually Papp A→B stands for the apparent permeability from the apical to the basolateral side of a cell layer. Take `Cc1cc(C(N)=O)ccc1-c1cccc(CN2CCOC[C@@H]2C(=O)N[C@@H](C)c2ccc(C(=O)O)cc2)c1` [Example 7, 4-((S)-1-((R)-4-((4′-carbamoyl-2′-methyl-[1,1′-biphenyl]-3-yl)methyl)morpholine-3-carboxamido)ethyl)benzoic acid]: on human EP4, the Emax was determined as 99% and the EC50 was 1.58e-09 M. Further, the apical-to-basolateral permeability (Papp A→B) at 1 h, 10 μM in series [1] was found to be 0.66 ×10⁻⁶ cm/s.

For `Cc1cc(C(N)=O)ccc1-c1cncc(CN2CCOC[C@@H]2C(=O)N[C@@H](C)c2ccc(C(=O)O)c(O)c2)c1` [Example 28, 4-((S)-1-((R)-4-((5-(4-carbamoyl-2-methylphenyl)pyridin-3-yl)methyl)morpholine-3-carboxamido)ethyl)-2-hydroxy benzoic acid], on human EP4, the Emax came to 100%. In series [1], this compound had an apparent permeability from apical to basolateral (Papp A→B) at 1 h, 10 μM of 0.23 ×10⁻⁶ cm/s.

As to `Cc1cc(C(N)=O)ccc1-c1cc(O)cc(CN2CCOC[C@H]2C(=O)N[C@@H](C)c2ccc(C(=O)O)cc2)c1` [Example 37, 4-((S)-1-((S)-4-((4′-carbamoyl-5-hydroxy-2′-methyl-[1,1′-biphenyl]-3-yl)methyl)morpholine-3-carboxamido)ethyl)benzoic acid], the EC50 at human EP4 was more than 1e-07 M. Moreover, the apparent permeability from apical to basolateral (Papp A→B) at 1 h, 10 μM in series [1] was less than 0.1 ×10⁻⁶ cm/s.

In the case of `Cc1cc(C(N)=O)ccc1-c1cccc(CN2CCOC[C@@H]2C(=O)NCc2ccc(C(=O)O)c(F)c2)c1` [Example 13, 4-[[[(3R)-4-[[3-(4-carbamoyl-2-methyl-phenyl)phenyl]methyl]morpholine-3-carbonyl]amino]methyl]-2-fluoro-benzoic acid], on human EP4, the maximal response (Emax) came out at 96% and the EC50 is 1.26e-08 M. The same compound came in with an apical-to-basolateral permeability (Papp A→B) at 1 h, 10 μM in series [1] of 0.32 ×10⁻⁶ cm/s.

On to `Cc1cc(C(N)=O)ccc1-c1cc(O)cc(CN2CCOC[C@@H]2C(=O)N[C@H](C)c2ccc(C(=O)O)cc2)c1` [Example 39, 4-((R)-1-((R)-4-((4′-carbamoyl-5-hydroxy-2′-methyl-[1,1′-biphenyl]-3-yl)methyl)morpholine-3-carboxamido)ethyl)benzoic acid], for which, on human EP4, the Emax worked out at 99% and the EC50 was 7.94e-11 M. Further, the apical-to-basolateral permeability (Papp A→B) at 1 h, 10 μM in series [1] was 0.35 ×10⁻⁶ cm/s.

For the compound `NC(=O)c1ccc(-c2cccc(CN3CCOC[C@@H]3C(=O)NC3(c4ccc(C(=O)O)cc4)CC3)c2)c(O)c1` [Example 32, (R)-4-(1-(4-((4′-carbamoyl-2′-hydroxy-[1,1′-biphenyl]-3-yl)methyl)morpholine-3-carboxamido)cyclopropyl)benzoic acid], at human EP4, the Emax is 91% and the EC50 was 6.31e-10 M. In series [1], the Papp A→B at 1 h, 10 μM stood at 0.15 ×10⁻⁶ cm/s.
